# “And” between values parts separate entries of the source, which are not always exact repeats. Identical values can stand only once.
# Tested on: 292921-168-R-J2-PDC complex spheroid viability
# Experiment: Anticancer human tumor 292921-168-R-J2-PDC patient-derived pancreatic carcinoma cell line growth inhibition
# Conditions: for viability, T/C: stronger effect = lower value
# Outline: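 Complex spheroids of tumor cells with HUVEC and human MSCs, exposed to iadademstat combined with other agents. Each agent tested in half-log steps from near clinical Cmax (else 10 microM top), DMSO ≤0.25%.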
# [1] = curve of first compound, second compound 0.1 µM
# [2] = curve of first compound, second compound 0.316 µM
# [3] = curve of first compound, second compound 1 µM
# [4] = curve of first compound, second compound 3.16 µM
# [5] = curve of first compound, second compound 10 µM
# [6] = second compound 0.1 µM, first compound 0.00316 µM
# [7] = second compound 0.1 µM, first compound 0.01 µM
# [8] = second compound 0.1 µM, first compound 0.0316 µM
# [9] = second compound 0.1 µM, first compound 0.1 µM
# [10] = second compound 0.1 µM, first compound 0.316 µM
# [11] = second compound 0.1 µM, first compound 1 µM
# [12] = second compound 0.316 µM, first compound 0.00316 µM
# [13] = second compound 0.316 µM, first compound 0.01 µM
# [14] = second compound 0.316 µM, first compound 0.0316 µM
# [15] = second compound 0.316 µM, first compound 0.1 µM
# [16] = second compound 0.316 µM, first compound 0.316 µM
# [17] = second compound 0.316 µM, first compound 1 µM
# [18] = second compound 1 µM, first compound 0.00316 µM
# [19] = second compound 1 µM, first compound 0.01 µM
# [20] = second compound 1 µM, first compound 0.0316 µM
# [21] = second compound 1 µM, first compound 0.1 µM
# [22] = second compound 1 µM, first compound 0.316 µM
# [23] = second compound 1 µM, first compound 1 µM
# [24] = second compound 3.16 µM, first compound 0.00316 µM
# [25] = second compound 3.16 µM, first compound 0.01 µM
# [26] = second compound 3.16 µM, first compound 0.0316 µM
# [27] = second compound 3.16 µM, first compound 0.1 µM
# [28] = second compound 3.16 µM, first compound 0.316 µM
# [29] = second compound 3.16 µM, first compound 1 µM
# [30] = second compound 10 µM, first compound 0.00316 µM
# [31] = second compound 10 µM, first compound 0.01 µM
# [32] = second compound 10 µM, first compound 0.0316 µM
# [33] = second compound 10 µM, first compound 0.1 µM
# [34] = second compound 10 µM, first compound 0.316 µM
# [35] = second compound 10 µM, first compound 1 µM
# [36] = second compound 0.1 µM, first compound 3.16 µM
# [37] = second compound 0.1 µM, first compound 10 µM
# [38] = second compound 0.316 µM, first compound 3.16 µM
# [39] = second compound 0.316 µM, first compound 10 µM
# [40] = second compound 1 µM, first compound 3.16 µM
# [41] = second compound 1 µM, first compound 10 µM
# [42] = second compound 3.16 µM, first compound 3.16 µM
# [43] = second compound 3.16 µM, first compound 10 µM
# [44] = second compound 10 µM, first compound 3.16 µM
# [45] = second compound 10 µM, first compound 10 µM
# 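Further: seven day compound exposure before luminescent viability read.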
# 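Wherever viability, T/C is given: 100% = DMSO vehicle control wells.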
smiles,measurement,setting,value
Nc1ncn(C2CC(O)C(CO)O2)c(=O)n1 (centres undefined) + NC1CC1c1ccc(-c2cccc(O)c2)cc1,IC50,[1],646 nM
same,IC50,[2],330 nM
same,IC50,[3],104 nM
same,IC50,[4],171 nM
same,IC50,[5],90.8 nM
same,"viability, T/C",[6],79.1%
same,"viability, T/C",[7],76.2%
same,"viability, T/C",[8],71.9%
same,"viability, T/C",[9],66.9%
same,"viability, T/C",[10],55%
same,"viability, T/C",[11],46.5%
same,"viability, T/C",[12],74.7%
same,"viability, T/C",[13],75%
same,"viability, T/C",[14],65.2%
same,"viability, T/C",[15],60.4%
same,"viability, T/C",[16],49.6%
same,"viability, T/C",[17],44.4%
same,"viability, T/C",[18],64.8%
same,"viability, T/C",[19],52.3%
same,"viability, T/C",[20],53.4%
same,"viability, T/C",[21],53.2%
same,"viability, T/C",[22],48%
same,"viability, T/C",[23],39.1%
same,"viability, T/C",[24],65.2%
same,"viability, T/C",[25],63.5%
same,"viability, T/C",[26],61.4%
same,"viability, T/C",[27],54%
same,"viability, T/C",[28],45.2%
same,"viability, T/C",[29],38.4%
same,"viability, T/C",[30],55%
same,"viability, T/C",[31],56.3%
same,"viability, T/C",[32],55.3%
same,"viability, T/C",[33],47.2%
same,"viability, T/C",[34],45.4%
same,"viability, T/C",[35],39.8%
NS(=O)(=O)OCC1CC(n2ccc3c(NC4CCc5ccccc54)ncnc32)CC1O (centres undefined),"viability, T/C",compound 0.00949 µM,81.2% and 90.5%
same,"viability, T/C",compound 0.03 µM,15.7% and 18%
same,"viability, T/C",compound 0.0949 µM,2.87% and 3.52%
same,"viability, T/C",compound 0.3 µM,1.94% and 1.72%
same,"viability, T/C",compound 0.949 µM,1.98% and 1.67%
same,"viability, T/C",compound 3 µM,1.78% and 1.54%
same,IC50,curve of compound,16.4 nM and 18.1 nM
Nc1ncn(C2CC(O)C(CO)O2)c(=O)n1 (centres undefined),"viability, T/C",compound 0.00316 µM,98.6% and 89%
same,"viability, T/C",compound 0.01 µM,96.7% and 91.5%
same,"viability, T/C",compound 0.0316 µM,71.8% and 82.9%
same,"viability, T/C",compound 0.1 µM,69.7% and 73.9%
same,"viability, T/C",compound 0.316 µM,63.4% and 63.6%
same,"viability, T/C",compound 1 µM,55.4% and 58.2%
same,IC50,curve of compound,> 1000 nM
CC1COCCN1c1cc(C2(S(C)(=N)=O)CC2)nc(-c2ccnc3[nH]ccc23)n1 (centres undefined) + NC1CC1c1ccc(-c2cccc(O)c2)cc1,IC50,[1],368 nM
same,IC50,[2],318 nM
same,IC50,[3],293 nM
same,IC50,[4],253 nM
same,IC50,[5],104 nM
same,"viability, T/C",[8],88.3%
same,"viability, T/C",[9],82%
same,"viability, T/C",[10],51%
same,"viability, T/C",[11],28.8%
same,"viability, T/C",[36],15.2%
same,"viability, T/C",[37],11.4%
same,"viability, T/C",[14],66.8%
same,"viability, T/C",[15],58.8%
same,"viability, T/C",[16],51.8%
same,"viability, T/C",[17],26.5%
same,"viability, T/C",[38],15.4%
same,"viability, T/C",[39],11.4%
same,"viability, T/C",[20],63.1%
same,"viability, T/C",[21],61.6%
same,"viability, T/C",[22],48.9%
same,"viability, T/C",[23],25.5%
same,"viability, T/C",[40],13.2%
same,"viability, T/C",[41],11.5%
same,"viability, T/C",[26],59.4%
same,"viability, T/C",[27],63.6%
same,"viability, T/C",[28],46.3%
same,"viability, T/C",[29],23.2%
same,"viability, T/C",[42],13.7%
same,"viability, T/C",[43],11.8%
same,"viability, T/C",[32],50.9%
same,"viability, T/C",[33],53.3%
same,"viability, T/C",[34],39.6%
same,"viability, T/C",[35],27.1%
same,"viability, T/C",[44],12.2%
same,"viability, T/C",[45],11.4%
CC[C@@]1(O)C(=O)OCc2c1cc1n(c2=O)Cc2cc3c(CN(C)C)c(O)ccc3nc2-1 + NC1CC1c1ccc(-c2cccc(O)c2)cc1,IC50,[1],3.22 nM
same,IC50,[2],2.16 nM
same,IC50,[3],1.63 nM
same,IC50,[4],2.15 nM
same,IC50,[5],0.375 nM
same,"viability, T/C","second compound 0.1 µM, first compound 0.000316 µM",81.3%
same,"viability, T/C","second compound 0.1 µM, first compound 0.001 µM",78.9%
same,"viability, T/C",[6],48.2%
same,"viability, T/C",[7],21.6%
same,"viability, T/C",[8],8.58%
same,"viability, T/C",[9],3.36%
same,"viability, T/C","second compound 0.316 µM, first compound 0.000316 µM",72.8%
same,"viability, T/C","second compound 0.316 µM, first compound 0.001 µM",65.3%
same,"viability, T/C",[12],41.9%
same,"viability, T/C",[13],21%
same,"viability, T/C",[14],8.47%
same,"viability, T/C",[15],3.37%
same,"viability, T/C","second compound 1 µM, first compound 0.000316 µM",61.8%
same,"viability, T/C","second compound 1 µM, first compound 0.001 µM",56.7%
same,"viability, T/C",[18],41.1%
same,"viability, T/C",[19],21.3%
same,"viability, T/C",[20],8.54%
same,"viability, T/C",[21],4.7%
same,"viability, T/C","second compound 3.16 µM, first compound 0.000316 µM",66.4%
same,"viability, T/C","second compound 3.16 µM, first compound 0.001 µM",61.9%
same,"viability, T/C",[24],44.2%
same,"viability, T/C",[25],17.8%
same,"viability, T/C",[26],8.75%
same,"viability, T/C",[27],3.88%
same,"viability, T/C","second compound 10 µM, first compound 0.000316 µM",50.7%
same,"viability, T/C","second compound 10 µM, first compound 0.001 µM",46.7%
same,"viability, T/C",[30],37.4%
same,"viability, T/C",[31],20.5%
same,"viability, T/C",[32],9.34%
same,"viability, T/C",[33],4.4%
O=C(c1cc(Cc2n[nH]c(=O)c3ccccc23)ccc1F)N1CCN(C(=O)C2CC2)CC1 + NC1CCC(NC2CC2c2ccccc2)CC1,IC50,[1],4520 nM
same,IC50,[2],3020 nM
same,IC50,[3],1060 nM
same,IC50,[4],1220 nM
same,IC50,[5],1300 nM
same,"viability, T/C",[8],63.7%
same,"viability, T/C",[9],65.6%
same,"viability, T/C",[10],70.3%
same,"viability, T/C",[11],58.6%
same,"viability, T/C",[36],55%
same,"viability, T/C",[37],39.5%
same,"viability, T/C",[14],61.5%
same,"viability, T/C",[15],59.8%
same,"viability, T/C",[16],64.7%
same,"viability, T/C",[17],57.1%
same,"viability, T/C",[38],47.5%
same,"viability, T/C",[39],36%
same,"viability, T/C",[20],55.5%
same,"viability, T/C",[21],58.6%
same,"viability, T/C",[22],51.8%
same,"viability, T/C",[23],51.9%
same,"viability, T/C",[40],42.5%
same,"viability, T/C",[41],31.8%
same,"viability, T/C",[26],55.4%
same,"viability, T/C",[27],54.5%
same,"viability, T/C",[28],60%
same,"viability, T/C",[29],50.3%
same,"viability, T/C",[42],42%
same,"viability, T/C",[43],34.9%
same,"viability, T/C",[32],53.9%
same,"viability, T/C",[33],54.4%
same,"viability, T/C",[34],54.4%
same,"viability, T/C",[35],52%
same,"viability, T/C",[44],42.9%
same,"viability, T/C",[45],32%

# — PubChem BioAssay AID1918934 (Molecular Pharmacology Branch, DTP, NCI, 2023)
